Experiments:
LOLMU = experiment: Post-emergence weed control, greenhouse (Example 1), percent injury 14 DAT; type: in vivo; settings: Lolium multiflorum, 336 h, Glufosinate 450 g/ha, read-out: Herbicidal action against LOLMU (% activity compared to untreated) Found
Excerpt: (§1) The herbicide compounds applied in the examples were used as experimental or commercially available solo or premix formulations which have been diluted with tap water to a suitable concentration. Glufosinate was used as a commercial SL formulation containing 280 g ai/I of glufosinate (Liberty 280 SL, BASF). While the PPO herbicides saflufenacil and trifludimoxazin were used as solo (saflufenacil - Sharpen/Heat herbicide 342 SC, BASF, or trifludimoxazin - Vulcarus 500 SC, BASF), or a premix of saflufenacil + trifludimoxazin as a 250 + 125 g ai/I SC formulation.
(§2) The evaluation for plant injury or damage caused by the chemical compositions was carried out using a scale from 0 - 100% when compared with the untreated control plants. Here, 0 means no damage and 100 means complete destruction of the plants.
22., E=X+Y-(X*Y/100), where X = effect in percent using herbicide A at an application rate of a; Y = effect in percent using herbicide B at an application rate of b; E = expected effect (in %) of A + B at application rates a + b.
The value E corresponds to the effect (plant damage or injury) which is to be expected if the activity of the individual compounds is just additive. If the observed effect is higher than the value E calculated according to Colby, a synergistic effect is present. […]

CARPA = experiment: Post-emergence weed control, field (Example 2), percent injury 16 DAT; type: in vivo, Cardamine parviflora
Excerpt: as §1, §2
(§3) A natural field population of small flowered bittercress (Cardamine parviflora; CARPA), cressleaf grounsel (Senecio glabellus; SENGL), cutleaf evening primrose (Oenothera laciniate; OEOLA), and annual bluegrass (Poa annua; POAAN) were treated with postemergence applications of either glufosinate at 450 or 655 g ai/ha, saflufenacil + trifludimoxazin at 1.7 + 0.8, or 4.2 + 2.1 g ai/ha, or the combination of glufosinate and saflufenacil + trifludimoxazin at 450 and 1.7 + 0.8, or 4.2 + 2.1 g ai/ha, respectively, when they were 10 - 25 cm in height. […]

SENGL = experiment: as above; type: in vivo, Senecio glabellus
Excerpt: as §1, §2, §3

OEOLA = experiment: as above; type: in vivo, Oenothera laciniate
Excerpt: as §1, §2, §3

POAAN [1] = experiment: as above; type: in vivo, Poa annua
Excerpt: as §1, §2, §3

STEME = experiment: Post-emergence weed control, field (Example 3), percent injury 17 DAT; type: in vivo, Stellaria media
Excerpt: as §1, §2
(§4) A natural field population of common chickweed (Stellaria media; STEME), purple cudweed (Gnaphalium purpureum; GNAPU), henbit (Lamium amplexicaule; LAMAM), and annual bluegrass (Poa annua; POAAN) were treated with postemergence applications of either glufosinate at 450 or 655 g ai/ha, saflufenacil + trifludimoxazin at 1.7 + 0.8, or 4.2 + 2.1 g ai/ha, or the combination of glufosinate and saflufenacil + trifludimoxazin at 450 and 1.7 + 0.8, or 4.2 + 2.1 g ai/ha, respectively, when they were 7.6 - 15 cm in height. […]

GNAPU = experiment: as above; type: in vivo, Gnaphalium purpureum
Excerpt: as §1, §2, §4

LAMAM = experiment: as above; type: in vivo, Lamium amplexicaule
Excerpt: as §1, §2, §4

POAAN [2] = experiment: as above; type: in vivo, Poa annua
Excerpt: as §1, §2, §4

SMILES: CP(=O)(O)CCC(N)C(=O)O (racemic) [Glufosinate, (2RS)-2-amino-4-[hydroxy(methyl)phosphinoyl]butyric acid]
- activity at 450 g/ha (LOLMU): 68.5%
- Mean % Control (16 DAT) CARPA (CARPA; 450 g ai/ha): 90.7%
- Mean % Control (16 DAT) CARPA (CARPA; 655 g ai/ha): 95.0%
- Mean % Control (16 DAT) SENGL (SENGL; 450 g ai/ha): 80.7%
- Mean % Control (16 DAT) SENGL (SENGL; 655 g ai/ha): 88.7%
- Mean % Control (16 DAT) OEOLA (OEOLA; 450 g ai/ha): 81.7%
- Mean % Control (16 DAT) OEOLA (OEOLA; 655 g ai/ha): 92.3%
- Mean % Control (16 DAT) POAAN (POAAN [1]; 450 g ai/ha): 80.0%
- Mean % Control (16 DAT) POAAN (POAAN [1]; 655 g ai/ha): 90.7%
- Mean % Control (17 DAT) STEME (STEME; 450 g ai/ha): 53.3%
- Mean % Control (17 DAT) STEME (STEME; 655 g ai/ha): 90.0%
- Mean % Control (17 DAT) GNAPU (GNAPU; 450 g ai/ha): 78.3%
- Mean % Control (17 DAT) GNAPU (GNAPU; 655 g ai/ha): 98.7%
- Mean % Control (17 DAT) LAMAM (LAMAM; 450 g ai/ha): 50.0%
- Mean % Control (17 DAT) LAMAM (LAMAM; 655 g ai/ha): 82.7%
- Mean % Control (17 DAT) POAAN (POAAN [2]; 450 g ai/ha): 66.7%
- Mean % Control (17 DAT) POAAN (POAAN [2]; 655 g ai/ha): 86.7%
